Assay results published in paper PMC12345137 (mBio, 2025).
Entries after “also recorded” stand apart in the source; their conditions may differ. Like-named read-outs stand apart in the source and are kept apart here. Positions of bridges follow the written chain, without caps; N, C: chain ends. Residues, ends and D or L forms follow the SMILES beside them.

Legend:
S. aureus agr-II = S. aureus agr-II (Staphylococcus aureus, UniProt O33587); assay: cell-based
Procedure, shortened: (§1)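 Staphylococcal agr reporters were grown with peptide for 22–24 h at 37°C. Background-corrected fluorescence per OD600 was expressed as a percentage of untreated control, and IC50 was obtained by variable-slope regression.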

S. aureus agr-III = S. aureus agr-III (Staphylococcus aureus, UniProt O33590); assay: cell-based
Sequence of S. aureus agr-III (O33590 entry or part of it): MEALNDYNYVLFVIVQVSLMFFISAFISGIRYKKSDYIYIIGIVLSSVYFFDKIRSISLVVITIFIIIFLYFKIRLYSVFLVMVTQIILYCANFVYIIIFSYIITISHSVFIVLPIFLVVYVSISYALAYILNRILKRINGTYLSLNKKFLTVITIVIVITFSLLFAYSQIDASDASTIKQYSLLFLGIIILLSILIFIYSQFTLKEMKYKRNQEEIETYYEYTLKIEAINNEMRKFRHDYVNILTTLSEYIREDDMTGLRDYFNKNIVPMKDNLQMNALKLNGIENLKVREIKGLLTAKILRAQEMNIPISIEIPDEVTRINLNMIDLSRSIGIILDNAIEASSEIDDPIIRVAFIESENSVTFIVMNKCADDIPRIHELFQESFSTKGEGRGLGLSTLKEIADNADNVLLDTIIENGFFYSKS
Procedure, shortened: as §1

S. lugdunensis agr-I = S. lugdunensis agr-I (Staphylococcus lugdunensis, UniProt Q8VSW5); assay: cell-based; details: for QS interaction in words (inhibition / activation), S. lugdunensis agr-I: fluorescent reporter strain, peptides tested at 1000, 50, 2.5, 0.125 nM or in dose-response
Sequence of S. lugdunensis agr-I (Q8VSW5 entry or part of it): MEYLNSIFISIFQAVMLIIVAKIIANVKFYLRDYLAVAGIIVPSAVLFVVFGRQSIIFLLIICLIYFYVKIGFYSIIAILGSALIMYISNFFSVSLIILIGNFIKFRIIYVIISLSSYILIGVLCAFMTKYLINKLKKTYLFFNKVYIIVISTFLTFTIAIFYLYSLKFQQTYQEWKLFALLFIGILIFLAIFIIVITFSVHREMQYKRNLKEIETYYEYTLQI
Procedure, shortened: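 37°C, 1,000 rpm, 22–24 h in TSB + CAM or ERM (10 μg/mL); 1:5 serial peptide dilutions from 1 mM DMSO stocks; fluorescence (GFP ex 479/em 520, YFP ex 500/em 541) minus blank, ÷OD600, % of untreated control; IC50 by variable-slope fit.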

SA AgrC-IV = SA AgrC-IV (Staphylococcus aureus, UniProt Q309Z2)
Sequence of SA AgrC-IV (Q309Z2 entry or part of it): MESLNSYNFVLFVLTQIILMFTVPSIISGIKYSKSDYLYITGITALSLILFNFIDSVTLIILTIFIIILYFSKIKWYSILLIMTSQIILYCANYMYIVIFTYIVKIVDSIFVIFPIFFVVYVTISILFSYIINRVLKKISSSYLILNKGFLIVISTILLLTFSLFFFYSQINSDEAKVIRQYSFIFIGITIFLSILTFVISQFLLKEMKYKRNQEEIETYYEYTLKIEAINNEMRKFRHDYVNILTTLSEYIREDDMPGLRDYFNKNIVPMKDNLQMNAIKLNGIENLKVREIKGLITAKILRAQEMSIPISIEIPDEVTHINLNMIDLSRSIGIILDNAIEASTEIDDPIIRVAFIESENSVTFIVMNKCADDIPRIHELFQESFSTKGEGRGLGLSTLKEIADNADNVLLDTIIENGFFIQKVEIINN

S. aureus agr-I = S. aureus agr-I (Staphylococcus aureus, UniProt O07911); assay: Fluorescence reporter assay for agr interference, screening and IC50 (AH1677, P3-YFP); type: cell-based
Sequence of S. aureus agr-I (O07911 entry or part of it): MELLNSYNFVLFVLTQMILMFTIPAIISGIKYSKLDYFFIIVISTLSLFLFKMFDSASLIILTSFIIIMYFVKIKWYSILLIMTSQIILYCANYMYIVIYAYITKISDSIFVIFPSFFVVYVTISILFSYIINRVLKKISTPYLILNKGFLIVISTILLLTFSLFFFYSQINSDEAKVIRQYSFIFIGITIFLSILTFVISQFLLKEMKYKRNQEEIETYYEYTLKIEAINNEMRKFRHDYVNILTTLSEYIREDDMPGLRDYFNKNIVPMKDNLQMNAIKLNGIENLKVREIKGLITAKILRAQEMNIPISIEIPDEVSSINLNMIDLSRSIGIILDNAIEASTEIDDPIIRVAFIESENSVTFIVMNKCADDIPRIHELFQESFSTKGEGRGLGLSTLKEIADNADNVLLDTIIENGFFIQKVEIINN
Experimental: Peptides were evaluated for the ability to interfere with agr-mediated quorum sensing in S. aureus (AH1677, AH430, AH1747, and AH1872 for agr-I–IV, respectively) ([40]) using reporter strains expressing yellow fluorescent protein (YFP) upon agr activation. Interference with agr-mediated quorum sensing in S. epidermidis (AH3408, AH3623, and AH3409 for agr-I–III, respectively) ([45]), and S. lugdunensis (AH4031 for agr-I) ([37]) was evaluated using reporter strains expressing superfolder green fluorescent protein (sGFP) upon agr activation. Overnight cultures of the reporter strains were grown in TSB medium containing chloramphenicol (CAM, 10 μg/mL for S. aureus) or erythromycin (ERM, 10 μg/mL of S. epidermidis and S. lugdunensis) and diluted 1:100 in fresh TSB medium containing the same antibiotic. Assays were performed in sterile black 96-well plates with a clear bottom. […] DMSO stock solutions of peptides (1 mM) were diluted in TSB media and added (15 μL) in technical triplicate to the 96-well plate, followed by diluted bacterial overnight cultures (135 μL). […] Wells containing 150 μL TSB medium were used to measure background fluorescence. The 96-well plates were incubated in a humidified incubator at 37°C shaking at 1,000 rpm for 22–24 h and fluorescence (for GFP: excitation 479 nm, emission 520 nm; for YFP: excitation 500 nm, emission 541 nm; automatic gain), and OD600 values were subsequently measured using a plate reader. Background fluorescence was subtracted from all wells and further normalized to the corresponding OD600 value of the respective wells. The average fluorescence of control wells was used as a relative measure for 100% activation of the agr-circuit, and bar graphs were generated using GraphPad Prism 10.4 software. All assays were performed in at least a biological duplicate.
Overnight cultures of the reporter strains were grown in TSB medium containing chloramphenicol (CAM, 10 μg/mL for S. aureus) or erythromycin (ERM, 10 μg/mL of S. epidermidis and S. lugdunensis) and diluted 1:100 in fresh TSB medium containing the same antibiotic. Assays were performed in sterile black 96-well plates with clear bottoms. Peptide solutions (15 μL) in 1:5 serial dilutions from DMSO stock solutions (1 mM) in TSB medium were added to the 96-well plate in technical duplicate followed by diluted bacterial overnight cultures (135 μL). […] Wells containing 150 μL TSB medium were used to measure background fluorescence. The 96-well plates were incubated in a humidified incubator at 37°C shaking at 1,000 rpm for 22–24 h and fluorescence (for GFP: excitation 479 nm, emission 520 nm; for YFP: excitation 500 nm, emission 541 nm; automatic gain), and OD600 values were subsequently measured using a plate reader. Background fluorescence was subtracted from all wells and further normalized to the corresponding OD600 value of the respective wells. The average fluorescence of control wells was used as a relative measure for 100% activation of the agr-circuit. Relative agr activity was plotted to obtain IC50 values by non-linear regression with variable slope using GraphPad Prism 10.4 software. All assays were performed in biological triplicate.

[1] = fluorescent reporter strain, peptides tested at 1000, 50, 2.5, 0.125 nM or in dose-response

Sequence of S. aureus agr-II (O33587 entry or part of it): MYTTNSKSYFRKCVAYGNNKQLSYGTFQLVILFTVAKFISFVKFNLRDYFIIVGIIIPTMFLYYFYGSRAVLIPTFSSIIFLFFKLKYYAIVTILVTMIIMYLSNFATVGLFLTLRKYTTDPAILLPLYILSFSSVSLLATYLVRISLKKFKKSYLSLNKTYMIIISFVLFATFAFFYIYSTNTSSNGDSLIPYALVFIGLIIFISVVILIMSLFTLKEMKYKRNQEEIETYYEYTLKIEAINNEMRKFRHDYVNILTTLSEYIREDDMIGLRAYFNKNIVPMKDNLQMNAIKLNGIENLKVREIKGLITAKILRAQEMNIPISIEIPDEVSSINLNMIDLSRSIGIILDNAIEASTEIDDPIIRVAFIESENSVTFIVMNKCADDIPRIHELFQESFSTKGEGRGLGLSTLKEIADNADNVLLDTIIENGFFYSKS

Compound	IC50 (S. aureus agr-II)	IC50 (S. aureus agr-III)	IC50 (S. lugdunensis agr-I)	EC50 (SA AgrC-IV; ± SEM; determined previously; ref (1); read-out: EC50, SA AgrC-IV, b-lactamase assay; cited from earlier work)	IC50 (S. aureus agr-I)	IC50 (SA AgrC-IV; read-out: IC50, SA AgrC-IV, b-lactamase assay; 100 nM cognate AIP; ± SEM; -b = no inhibition recorded at the highest AIP concentration tested; determined previously; ref (1); cited from earlier work)	QS interaction in words (inhibition / activation), S. aureus agr-I (S. aureus agr-I; [1])	QS interaction in words (inhibition / activation), S. aureus agr-II (S. aureus agr-II; [1])	QS interaction in words (inhibition / activation), S. aureus agr-III (S. aureus agr-III; [1])	QS interaction in words (inhibition / activation), S. lugdunensis agr-I (S. lugdunensis agr-I)	IC50 fold lower compared with the most potent, previously reported inhibitors of S. lugdunensis (S. lugdunensis agr-I; S. lugdunensis agr-I, comparison with [37])	IC50 (SA AgrC-IV; 100 nM cognate AIP; ± SEM; -b = no inhibition recorded at the highest AIP concentration tested; determined previously; ref (1); read-out: IC50, SA AgrC-IV, b-lactamase assay; cited from earlier work)
CC[C@H](C)[C@@H]1NC(=O)[C@H](Cc2ccccc2)NC(=O)[C@H](CC(=O)O)NC(=O)[C@@H](NC(=O)[C@@H](NC(=O)[C@H](CO)NC(=O)[C@@H](N)Cc2ccc(O)cc2)[C@@H](C)O)CSC(=O)[C@H](CCSC)NC1=O [compound 1, S. aureus AIP-I] (H-YSTCDFIM; thioester 4-C)	5.8 ± 0.7 nM	0.91 nM	> 1000 nM	790 ± 66 nM	–	–	–	–	–	–	–	–
CC(C)C[C@@H]1NC(=O)[C@@H](NC(=O)[C@@H]2CCCN2C(=O)[C@H](CC(N)=O)NC(=O)[C@H](Cc2ccc(O)cc2)NC(=O)[C@@H](N)CCCCN)CSC(=O)[C@H](CC(C)C)NC(=O)[C@H](Cc2ccccc2)NC(=O)CNC1=O [compound 32, S. simulans AIP-I] (H-KYNPCLGFL; thioester 5-C; N-terminus assumed)	0.31 ± 0.01 nM	0.53 ± 0.02 nM	113 ± 11 nM	–	0.34 ± 0.02 nM	280 ± 66 nM	–	–	–	–	–	–
NCCCC[C@H](N)C(=O)N[C@@H](Cc1ccc(O)cc1)C(=O)N[C@@H](Cc1ccc(O)cc1)C(=O)N1CCC[C@H]1C(=O)N[C@H]1CSC(=O)[C@H](Cc2ccccc2)NC(=O)[C@H](Cc2ccc(O)cc2)NC(=O)CNC(=O)[C@H](Cc2c[nH]c3ccccc23)NC1=O [compound 33, S. simulans AIP-II] (H-KYYPCWGYF; thioester 5-C)	0.8 ± 0.2 nM	2.8 ± 0.3 nM	1.2 ± 0.2 nM	–	0.45 nM	–	inhibited	inhibited	inhibited	inhibited; also recorded: sub- or low-nanomolar potencies	–	–
NCCCC[C@H](N)C(=O)N[C@@H](Cc1ccc(O)cc1)C(=O)N[C@@H](CC(N)=O)C(=O)N1CCC[C@H]1C(=O)N[C@H]1CSC(=O)[C@H](Cc2ccccc2)NC(=O)[C@H](Cc2ccc(O)cc2)NC(=O)CNC(=O)[C@H](Cc2c[nH]c3ccccc23)NC1=O [compound 34, S. simulans AIP-III] (H-KYNPCWGYF; thioester 5-C)	0.22 ± 0.06 nM	0.59 ± 0.04 nM	0.48 nM	–	0.18 ± 0.03 nM	–	–	–	–	sub- or low-nanomolar potencies	400 fold	–
S. aureus AIP-III D4A [compound 57, reference compound]	–	–	–	–	–	–	–	–	–	weak interference	–	10 ± 0.2 nM
